Results reported in ChEMBL document CHEMBL1131349, “4-[(1H-imidazol-4-yl) methyl] benzamidines and benzylamidines: novel antagonists of the histamine H3 receptor” (Bioorg Med Chem Lett, 1998).

Legend:
Histamine H3 receptor = Histamine H3 receptor (Cavia porcellus, UniProt Q9JI35); assay: Inhibition of N-alpha-methylhistamine binding to histamine H3 receptor of guinea pig brain membranes
Cavia porcellus [1] = assay: In vivo antihistaminic (Histamine H3) activity was determined in guinea pig; type: functional
[2] = target: Histamine H3 receptor (Cavia porcellus) (UniProt Q9JI35); assay: Compound was tested for inhibition of N-alpha-methylhistamine binding to histamine H3 receptor in guinea pig brain membranes; type: cell membranes; settings: Membrane, concentration not given here
Cavia porcellus [3] = assay: Percent inhibition of histamine H3 mediated antihistaminic activity in guinea pig was determined in vivo; type: functional

Chain of Histamine H3 receptor (Q9JI35 whole entry): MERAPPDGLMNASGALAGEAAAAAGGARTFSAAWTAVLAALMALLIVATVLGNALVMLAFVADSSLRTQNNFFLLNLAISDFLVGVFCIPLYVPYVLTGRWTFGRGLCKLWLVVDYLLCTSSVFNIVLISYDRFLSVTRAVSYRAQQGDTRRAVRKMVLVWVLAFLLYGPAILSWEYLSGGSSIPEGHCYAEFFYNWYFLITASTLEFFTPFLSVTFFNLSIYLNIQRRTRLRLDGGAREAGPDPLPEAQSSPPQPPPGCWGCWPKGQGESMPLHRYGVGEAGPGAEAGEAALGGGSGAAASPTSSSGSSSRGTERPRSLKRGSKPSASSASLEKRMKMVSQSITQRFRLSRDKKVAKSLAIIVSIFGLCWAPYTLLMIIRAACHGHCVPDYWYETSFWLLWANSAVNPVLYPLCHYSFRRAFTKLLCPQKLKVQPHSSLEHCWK
Chain of Histamine H3 receptor (Cavia porcellus) (Q9JI35 whole entry): as above

SMILES | Ki (Histamine H3 receptor) [µM] | further results
N=C(CCc1ccc(Cc2cnc[nH]2)cc1)NCc1ccc(Cl)cc1 | 0.175 | –
N=C(Cc1ccc(Cc2c[nH]cn2)cc1)NCc1ccc(Cl)cc1 | – | ED50 (Cavia porcellus [1]): 0.3 mg/kg
N=C(N)CCCc1c[nH]cn1 | 0.0012 | –
N=C(NCc1ccc(Cl)cc1)c1ccc(Cc2c[nH]cn2)cc1 | 0.016 | ED50 (Cavia porcellus [1]): 0.3 mg/kg
S=C(NC1CCCCC1)N1CCC(c2cnc[nH]2)CC1 [THIOPERAMIDE] | 0.0073 | ED50 (Cavia porcellus [1]): 0.4 mg/kg
N=C(N)c1ccc(-c2c[nH]cn2)cc1 | – | inhibition [2]: 49%
N=C(NCc1ccncc1)c1ccc(Cc2c[nH]cn2)cc1 | – | inhibition [2]: 44%
COc1ccc(C/N=C(\N)c2ccc(Cc3c[nH]cn3)cc2)cc1 | 0.513 | –
N=C(N)c1cccc(-c2c[nH]cn2)c1 | 0.35 | –
N=C(N)c1ccc(CCc2cnc[nH]2)cc1 | 0.165 | –
N=C(N)c1ccc(Cc2c[nH]cn2)cc1 | – | Inhibition (Cavia porcellus [3]): 33%
